Values quoted from earlier work as cited in US20260263442A1, “METHOD FOR TREATING L-DOPA-INDUCED DYSKINESIA USING BEFIRADOL” (Neurolixis, Inc., priority 2023, published 2026).

Assays:
[1] = test system: striatal 5-HT1A receptors; conditions: striatum of rat, cat, macaque and human; cited from earlier work
[2] = test system: L-DOPA-induced dyskinesia in Parkinson's patients; conditions: human, in vivo; cited from earlier work
[3] = test system: L-DOPA-induced dyskinesia in Parkinson's patients; conditions: cited from earlier work; for Efficacy to alleviate LID, clinically tested / Effect on motor symptoms of Parkinson's disease: human, in vivo

Row | SMILES | Efficacy to alleviate LID, clinically tested [3] | Effect on motor symptoms of Parkinson's disease [3] | further results
1 | Cc1ccc(CNCC2(F)CCN(C(=O)c3ccc([18F])c(Cl)c3)CC2)nc1 [^18F-NLX-112] | – | – | Labelling of 5-HT1A receptors, PET brain imaging [1]: consistently labelled striatal 5-HT1A receptors
2 | NC12CC3CC(CC(C3)C1)C2 [amantadine] | – | – | Proportion of patients who are non-responders [2]: about ⅓; Side effects limiting use [2]: hallucinations, confusion, leg edema, orthostatic hypotension
3 | O=C1CC2(CCCC2)CC(=O)N1CCCCN1CCN(c2ncccn2)CC1 [buspirone] | limited efficacy | – | –
4 | c1cc2c(c(N3CCNCC3)c1)OCCO2 [eltoprazine] | limited efficacy | – | –
5 | Fc1ccc(-c2cncc(CNC[C@H]3CCc4ccccc4O3)c2)cc1 [sarizotan] | limited efficacy | no beneficial effect or even the opposite effect | Effect on L-DOPA efficacy, phase 2b study ([3]; Parkinson's patients with troublesome L-DOPA-induced dyskinesia): two of the three tested doses significantly reduced L-DOPA efficacy; Reduction of LID, two phase 3 clinical trials ([3]; third (and lowest) dose): ineffective in reducing LID
6 | O=C1[C@@H]2[C@H]3CC[C@H](C3)[C@@H]2C(=O)N1CCCCN1CCN(c2ncccn2)CC1 [tandospirone] | limited efficacy | no beneficial effect or even the opposite effect | –
